Measurements published in ChEMBL document CHEMBL1201862, “PubChem BioAssay data set” (2004).
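Test compounds were applied to cells in 96-well plates for 48 hours at 5 doses. GI50: concentration for 50% inhibition of growth.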 Calls of active or inactive are those of the source. No stated cut-off is given here; in the data, active = GI50 up to about 1.1 µM and inactive = higher.

Key:
Assay in all cases: NCI tumour cell line growth inhibition, 48 h
PC-3 = system: PC-3
K562 = system: K562
U-251 = system: U-251
MCF7 = system: MCF7
OVCAR-8 = system: OVCAR-8
NCI-H460 = system: NCI-H460
HCT-116 = system: HCT-116
SR = system: SR
UACC-257 = system: UACC-257
SNB-75 = system: SNB-75
KM12 = system: KM12
SW-620 = system: SW-620
UO-31 = system: UO-31
M14 = system: M14
OVCAR-4 = system: OVCAR-4
SF-295 = system: SF-295
ACHN = system: ACHN
SK-MEL-28 = system: SK-MEL-28
MOLT-4 = system: MOLT-4

Measured: GI50

O=C1OC(c2ccc(Cl)cc2)=N/C1=C\c1ccccc1
inactive: PC-3 > 100 µM | K562 > 100 µM | U-251 > 100 µM | MCF7 > 100 µM | OVCAR-8 > 100 µM | NCI-H460 > 100 µM | HCT-116 > 100 µM | SR > 100 µM | UACC-257 > 100 µM | SNB-75 > 100 µM | KM12 > 100 µM | SW-620 > 100 µM | UO-31 > 100 µM | M14 > 100 µM | OVCAR-4 > 100 µM | SF-295 > 100 µM | ACHN > 100 µM | SK-MEL-28 > 100 µM

C=C1C(=O)OC2/C=C(/C)C(OC(C)=O)C/C=C(\C)C(OC(=O)C3(C)OC3C)C(O)C12 (stereo not drawn)
inactive: PC-3 > 100 µM | K562 40.8 µM | U-251 > 100 µM | MCF7 51.1 µM | OVCAR-8 > 100 µM | NCI-H460 > 100 µM | HCT-116 39.7 µM | SR 39.4 µM | UACC-257 > 100 µM | SNB-75 97.7 µM | KM12 > 100 µM | SW-620 42.4 µM | M14 > 100 µM | OVCAR-4 > 100 µM | SF-295 > 100 µM | ACHN > 100 µM | SK-MEL-28 71 µM | MOLT-4 36.9 µM

COC1=C(Br)C(O)C2(C=C1Br)CC(C(=O)NCCCCNC(=O)C1=NOC3(C=C(Br)C(OC)=C(Br)C3O)C1)=NO2 (stereo not drawn)
inactive: PC-3 20.4 µM | K562 16.3 µM | U-251 25.8 µM | MCF7 21.8 µM | OVCAR-8 20.3 µM | NCI-H460 26.4 µM | HCT-116 18.2 µM | SR 13.8 µM | UACC-257 16.3 µM | SNB-75 16.9 µM | KM12 12.4 µM | SW-620 37.1 µM | UO-31 43.2 µM | M14 15.5 µM | OVCAR-4 54.3 µM | SF-295 25.1 µM | ACHN 26.3 µM | SK-MEL-28 25.5 µM

COc1ccc(/N=N/c2ccc3oc(=O)c(C(=O)Nc4ccccc4)cc3c2)cc1
inactive: PC-3 > 6.01 µM | U-251 > 10 µM | MCF7 > 9.29 µM | OVCAR-8 > 8.51 µM | NCI-H460 > 10 µM | HCT-116 > 10 µM | SR > 10 µM | UACC-257 > 10 µM | SNB-75 > 9.31 µM | KM12 > 10 µM | SW-620 > 10 µM | UO-31 5.52 µM | M14 > 10 µM | OVCAR-4 > 10 µM | SF-295 > 10 µM | ACHN > 5.81 µM | SK-MEL-28 > 10 µM | MOLT-4 6.4 µM

COC(=O)c1c(O)ccc2c1c1c(n2Cc2ccccc2)C(=O)c2ccccc2C1
inactive: PC-3 20 µM | K562 2.84 µM | U-251 38 µM | MCF7 25.4 µM | OVCAR-8 39.7 µM | NCI-H460 31.9 µM | HCT-116 54.6 µM | SR 7.48 µM | UACC-257 50.6 µM | SNB-75 20.6 µM | KM12 35.1 µM | SW-620 74 µM | UO-31 49.4 µM | M14 52.4 µM | OVCAR-4 18.6 µM | SF-295 27.1 µM | SK-MEL-28 44.6 µM | MOLT-4 3.17 µM

CCOC(=O)c1c(O)nc2cccc3c2c1-c1cccnc1S3
inactive: PC-3 15.8 µM | K562 32.1 µM | U-251 21.3 µM | MCF7 1.14 µM | OVCAR-8 35.5 µM | NCI-H460 24.4 µM | HCT-116 44.5 µM | SR 28.6 µM | UACC-257 37.6 µM | SNB-75 21.2 µM | SW-620 55.3 µM | UO-31 23 µM | M14 32.7 µM | OVCAR-4 33.1 µM | SF-295 23.7 µM | ACHN 28.8 µM | SK-MEL-28 30.8 µM | MOLT-4 16.9 µM

Cc1cc(S(=O)(=O)/N=C(\NN)NNc2cccc(C(F)(F)F)n2)c(S)cc1Cl
inactive: PC-3 17.3 µM | K562 22.7 µM | U-251 16.8 µM | MCF7 > 10 µM | OVCAR-8 24.8 µM | NCI-H460 26.9 µM | HCT-116 21.3 µM | SR 21.3 µM | UACC-257 32.6 µM | SNB-75 14.6 µM | KM12 16.9 µM | SW-620 18.5 µM | UO-31 18.9 µM | M14 17.9 µM | OVCAR-4 14.4 µM | ACHN 21.4 µM | SK-MEL-28 15 µM | MOLT-4 19.2 µM

O=C(Nc1ccccc1)n1[nH]c(=O)n(-c2ccccc2)c1=O
inactive: PC-3 > 100 µM | K562 > 100 µM | U-251 > 100 µM | MCF7 > 100 µM | OVCAR-8 > 100 µM | NCI-H460 > 100 µM | HCT-116 > 100 µM | SR > 100 µM | UACC-257 > 100 µM | SNB-75 > 100 µM | KM12 > 100 µM | SW-620 > 100 µM | UO-31 > 100 µM | OVCAR-4 > 100 µM | SF-295 > 100 µM | ACHN > 100 µM | SK-MEL-28 > 100 µM
